Experimental data published in patent US11807835B2, “Detergent compositions containing a stabilized enzyme by phosphonates” (ECOLAB USA INC., priority 2016, dated 2023).

How the values were obtained:
amylase = experiment: Amylase activity retention in detergent use solution (4000 ppm, 5 GPG water; ethylidene substrate EPS, HEPES buffer pH 8.0); format: biochemical; details: base formula
How it was run: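 Detergent use solution at 4000 ppm in 5 GPG water held at 120° F.; aliquots taken up to 4 h, flash-frozen, then assayed with p-nitrophenyl valerate in TRIS pH 8.0 (lipase) or EPS substrate in HEPES pH 8.0 (amylase). Retention given as % activity relative to t=0.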

protease = experiment: Protease activity retention in detergent use solution (4000 ppm, 5 GPG water; peptidyl substrate, glycine buffer pH 9.0); format: biochemical; details: base formula, use solution at 120° F.
How it was run: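 Detergent use solutions at 4000 ppm in 5 GPG water were held at 120° F with stirring and sampled up to 4 h, with aliquots flash-frozen. Activity was read on a peptidyl substrate in glycine buffer pH 9.0 by absorbance against a calibration curve. Retention is % activity relative to the t=0 sample.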

Monoethanolamine phosphonate [MEAP]
Relative Amylase Enzyme Activity (amylase; phosphonate 0.3 wt-%, use solution at 120° F., time 0 min): 100.00% | Relative Amylase Enzyme Activity (amylase; phosphonate 0.3 wt-%, use solution at 120° F., time 5 min): 100.65% | Relative Amylase Enzyme Activity (amylase; phosphonate 0.3 wt-%, use solution at 120° F., time 10 min): 102.68% | Relative Amylase Enzyme Activity (amylase; phosphonate 0.3 wt-%, use solution at 120° F., time 20 min): 102.07% | Relative Amylase Enzyme Activity (amylase; phosphonate 0.3 wt-%, use solution at 120° F., time 40 min): 91.36% | Relative Amylase Enzyme Activity (amylase; phosphonate 0.3 wt-%, use solution at 120° F., time 60 min): 93.57% | Relative Amylase Enzyme Activity (amylase; phosphonate 0.3 wt-%, use solution at 120° F., time 90 min): 94.85% | Relative Amylase Enzyme Activity (amylase; phosphonate 0.3 wt-%, use solution at 120° F., time 120 min): 102.84% | Relative Amylase Enzyme Activity (amylase; phosphonate 0.3 wt-%, use solution at 120° F., time 150 min): 93.01% | Relative Amylase Enzyme Activity (amylase; phosphonate 0.3 wt-%, use solution at 120° F., time 180 min): 96.46% | Relative Amylase Enzyme Activity (amylase; phosphonate 0.3 wt-%, use solution at 120° F., time 210 min): 100.65% | Relative Amylase Enzyme Activity (amylase; phosphonate 0.3 wt-%, use solution at 120° F., time 240 min): 103.40% | Relative Amylase Enzyme Activity (amylase; phosphonate 0.6 wt-%, use solution at 120º F., time 0 min): 100.00% | Relative Amylase Enzyme Activity (amylase; phosphonate 0.6 wt-%, use solution at 120º F., time 5 min): 95.91% | Relative Amylase Enzyme Activity (amylase; phosphonate 0.6 wt-%, use solution at 120º F., time 10 min): 99.98% | Relative Amylase Enzyme Activity (amylase; phosphonate 0.6 wt-%, use solution at 120º F., time 20 min): 90.83% | Relative Amylase Enzyme Activity (amylase; phosphonate 0.6 wt-%, use solution at 120º F., time 40 min): 91.75% | Relative Amylase Enzyme Activity (amylase; phosphonate 0.6 wt-%, use solution at 120º F., time 60 min): 97.99% | Relative Amylase Enzyme Activity (amylase; phosphonate 0.6 wt-%, use solution at 120º F., time 90 min): 99.08% | Relative Amylase Enzyme Activity (amylase; phosphonate 0.6 wt-%, use solution at 120º F., time 120 min): 97.36% | Relative Amylase Enzyme Activity (amylase; phosphonate 0.6 wt-%, use solution at 120º F., time 150 min): 101.28% | Relative Amylase Enzyme Activity (amylase; phosphonate 0.6 wt-%, use solution at 120º F., time 180 min): 94.70% | Relative Amylase Enzyme Activity (amylase; phosphonate 0.6 wt-%, use solution at 120º F., time 210 min): 99.20% | Relative Amylase Enzyme Activity (amylase; phosphonate 0.6 wt-%, use solution at 120º F., time 240 min): 99.15% | Relative Amylase Enzyme Activity (amylase; phosphonate at 0.1% elemental phosphorus level, use solution at 120º F., time 0 min): 100.00% | Relative Amylase Enzyme Activity (amylase; phosphonate at 0.1% elemental phosphorus level, use solution at 120º F., time 5 min): 95.47% | Relative Amylase Enzyme Activity (amylase; phosphonate at 0.1% elemental phosphorus level, use solution at 120º F., time 10 min): 112.93% | Relative Amylase Enzyme Activity (amylase; phosphonate at 0.1% elemental phosphorus level, use solution at 120º F., time 20 min): 117.67% | Relative Amylase Enzyme Activity (amylase; phosphonate at 0.1% elemental phosphorus level, use solution at 120º F., time 40 min): 122.41% | Relative Amylase Enzyme Activity (amylase; phosphonate at 0.1% elemental phosphorus level, use solution at 120º F., time 60 min): 125.44% | Relative Amylase Enzyme Activity (amylase; phosphonate at 0.1% elemental phosphorus level, use solution at 120º F., time 90 min): 127.99% | Relative Amylase Enzyme Activity (amylase; phosphonate at 0.1% elemental phosphorus level, use solution at 120º F., time 120 min): 123.91% | Relative Amylase Enzyme Activity (amylase; phosphonate at 0.1% elemental phosphorus level, use solution at 120º F., time 150 min): 120.88% | Relative Amylase Enzyme Activity (amylase; phosphonate at 0.1% elemental phosphorus level, use solution at 120º F., time 180 min): 113.29% | Relative Amylase Enzyme Activity (amylase; phosphonate at 0.1% elemental phosphorus level, use solution at 120º F., time 210 min): 112.78% | Relative Amylase Enzyme Activity (amylase; phosphonate at 0.1% elemental phosphorus level, use solution at 120º F., time 240 min): 118.72% | Relative Protease Enzyme Activity (protease; phosphonate 0.3 wt-%, lower half of Table 4A, time 5): 98.29% | Relative Protease Enzyme Activity (protease; phosphonate 0.3 wt-%, lower half of Table 4A, time 20): 90.19% | Relative Protease Enzyme Activity (protease; phosphonate 0.3 wt-%, lower half of Table 4A, time 90): 72.58% | Relative Protease Enzyme Activity (protease; phosphonate 0.3 wt-%, lower half of Table 4A, time 120): 68.59% | Relative Protease Enzyme Activity (protease; phosphonate 0.3 wt-%, lower half of Table 4A, time 150, unit not given): 63.56% | Relative Protease Enzyme Activity (protease; phosphonate 0.3 wt-%, lower half of Table 4A, time 210): 60.60% | Relative Protease Enzyme Activity (protease; phosphonate 0.3 wt-%, lower half of Table 4A, time '0'): 103.02% | Relative Protease Enzyme Activity (protease; phosphonate 0.3 wt-%, lower half of Table 4A, time '40'): 82.48% | Relative Protease Enzyme Activity (protease; phosphonate 0.3 wt-%, lower half of Table 4A, time 'Blank'): 100.00% | Relative Protease Enzyme Activity (protease; phosphonate 0.3 wt-%, lower half of Table 4A, time row printed '10'): 96.59% | Relative Protease Enzyme Activity (protease; phosphonate 0.3 wt-%, lower half of Table 4A, time row printed '60'): 79.14% | Relative Protease Enzyme Activity (protease; phosphonate 0.3 wt-%, lower half of Table 4A, time row printed '180'): 58.70% | Relative Protease Enzyme Activity (protease; phosphonate 0.6 wt-%, time 0 min): 100.00% | Relative Protease Enzyme Activity (protease; phosphonate 0.6 wt-%, time 5 min): 106.85% | Relative Protease Enzyme Activity (protease; phosphonate 0.6 wt-%, time 10 min): 101.06% | Relative Protease Enzyme Activity (protease; phosphonate 0.6 wt-%, time 20 min): 104.08% | Relative Protease Enzyme Activity (protease; phosphonate 0.6 wt-%, time 40 min): 95.75% | Relative Protease Enzyme Activity (protease; phosphonate 0.6 wt-%, time 60 min): 95.13% | Relative Protease Enzyme Activity (protease; phosphonate 0.6 wt-%, time 90 min): 86.12% | Relative Protease Enzyme Activity (protease; phosphonate 0.6 wt-%, time 120 min): 85.48% | Relative Protease Enzyme Activity (protease; phosphonate 0.6 wt-%, time 150 min): 80.22% | Relative Protease Enzyme Activity (protease; phosphonate 0.6 wt-%, time 180 min): 82.71% | Relative Protease Enzyme Activity (protease; phosphonate 0.6 wt-%, time 210 min): 70.64% | Relative Protease Enzyme Activity (protease; phosphonate 0.6 wt-%, time 240 min): 72.77% | Relative Protease Enzyme Activity (protease; phosphonate at 0.1% elemental phosphorus, time 0 min): 100.00% | Relative Protease Enzyme Activity (protease; phosphonate at 0.1% elemental phosphorus, time 5 min): 119.22% | Relative Protease Enzyme Activity (protease; phosphonate at 0.1% elemental phosphorus, time 10 min): 118.42% | Relative Protease Enzyme Activity (protease; phosphonate at 0.1% elemental phosphorus, time 20 min): 113.68% | Relative Protease Enzyme Activity (protease; phosphonate at 0.1% elemental phosphorus, time 40 min): 108.32% | Relative Protease Enzyme Activity (protease; phosphonate at 0.1% elemental phosphorus, time 60 min): 105.97% | Relative Protease Enzyme Activity (protease; phosphonate at 0.1% elemental phosphorus, time 90 min): 95.99% | Relative Protease Enzyme Activity (protease; phosphonate at 0.1% elemental phosphorus, time 120 min): 91.30% | Relative Protease Enzyme Activity (protease; phosphonate at 0.1% elemental phosphorus, time 150 min): 82.74% | Relative Protease Enzyme Activity (protease; phosphonate at 0.1% elemental phosphorus, time 180 min): 81.94% | Relative Protease Enzyme Activity (protease; phosphonate at 0.1% elemental phosphorus, time 210 min): 79.85% | Relative Protease Enzyme Activity (protease; phosphonate at 0.1% elemental phosphorus, time 240 min): 75.73%
